{"source": "paper PMC5996997", "about": "(Journal of medicinal chemistry, 2017)", "key": {"[1]": {"target": "T1, PDK2 (Homo sapiens, UniProt Q15119)", "assay": "Isothermal titration calorimetry", "conditions": "ITC, binding to PDK2"}, "[2]": {"target": "T1, PDK2"}, "[3]": {"test_system": "diet-induced obese (DIO) mice", "assay": "Glucose tolerance test in DIO mice", "format": "in vivo, C57BL/6J male mice (DIO)", "conditions": "40–45 mg/kg/day, two weeks, p <0.05 at 20, 30, 60 and 120 min"}, "[4]": {"test_system": "diet-induced obese (DIO) mice", "assay": "Oil Red O stain of liver slices", "format": "in vivo, C57BL/6J male mice (DIO)", "conditions": "40–45 mg/kg/day by mini pumps, two weeks"}, "[5]": {"test_system": "phosphorylated E1α subunit (pE1)", "assay": "Western blot of phosphorylated E1α in liver homogenates of treated DIO mice", "format": "in vivo, C57BL/6J male mice (DIO)", "conditions": "40–45 mg/kg/day by osmotic mini-pumps, two weeks"}, "[6]": {"test_system": "PDC activity", "assay": "PDC activity in tissues of treated diet-induced obese mice", "format": "in vivo, C57BL/6J male mice (DIO)", "conditions": "DIO mice, 40–45 mg/kg/day by osmotic mini-pumps, two weeks"}, "[7]": {"conditions": "17 at 30 mg/kg vs 2 at 70 mg/kg IP"}}, "note": "Entries after “also recorded” stand apart in the source; their conditions may differ."}
{"smiles": "O=S(=O)(c1ccc(O)cc1O)N1Cc2ccc(NC3CCNCC3)cc2C1", "note": "[Compound 5, 4-((5-(piperidin-4-ylamino)isoindolin-2-yl)sulfonyl)benzene-1,3-diol]", "values": [{"measurement": "–TΔS", "setting": "[1]", "result": 4.64, "unit": "kcal/mol"}]}
{"smiles": "O=S(=O)(c1ccc(O)cc1O)N1Cc2cc(O)cc(O)c2C1", "note": "[Compound 2, 2-((2,4-dihydroxyphenyl)sulfonyl)isoindoline-4,6-diol]", "values": [{"measurement": "–TΔS", "setting": "[1]", "result": 6.57, "unit": "kcal/mol"}]}
{"smiles": "O=S(=O)(c1ccc(O)cc1O)N1Cc2ccc(O)cc2C1", "note": "[Compound 1, 4-((5-hydroxyisoindolin-2-yl)sulfonyl)benzene-1,3-diol]", "values": [{"measurement": "–TΔS", "setting": "[1]", "result": 5.54, "unit": "kcal/mol"}]}
{"smiles": "Nc1ccc2c(c1)CN(S(=O)(=O)c1ccc(O)cc1O)C2", "note": "[Compound 3]", "values": [{"measurement": "fold higher IC50 than 1", "setting": "[2]; PDK2, relative to 1", "result": 2, "unit": "fold"}]}
{"smiles": "NC(=O)C[C@H](N)C(=O)N1CCC(Nc2ccc3c(c2)CN(S(=O)(=O)c2ccc(O)cc2O)C3)CC1", "note": "[Compound 17, (S)-3-amino-4-(4-((2-((2,4-dihydroxyphenyl)sulfonyl)isoindolin-5-yl)amino)piperidin-1-yl)-4-oxobutanamide]", "values": [{"measurement": "gain in enthalpy change (ΔH) compared to 5", "setting": "[1]", "result": 3.4, "unit": "kcal/mol"}, {"measurement": "loss in entropy compared to 5", "setting": "[1]", "result": 2.7, "unit": "kcal/mol"}, {"measurement": "fold lower IC50 than 2", "setting": "[2]; PDK2, relative to 2", "result": "~ 8 fold"}, {"measurement": "fold better IC50 than 5", "setting": "[2]; PDK2, relative to 5", "result": 3.4, "unit": "fold"}, {"measurement": "glucose tolerance over vehicle-treated mice", "setting": "[3]", "result": "increases glucose tolerance"}, {"measurement": "hepatic fat / steatosis (Oil Red O)", "setting": "[4]", "result": "drastically reduced hepatic steatosis; also recorded: microvesicular"}, {"measurement": "phosphorylation of the E1α subunit (pE1) in the liver homogenate", "setting": "[5]", "result": "decreased phosphorylation"}, {"measurement": "PDC activation in heart and muscle", "setting": "[6]", "result": "no PDC activation"}, {"measurement": "increase of PDC activity in liver compared to the vehicle control", "setting": "[6]", "result": "about 6 fold"}, {"measurement": "fold higher AUClast in liver than 2", "setting": "[7]", "result": "> 10", "unit": "fold"}, {"measurement": "fold lower AUClast in muscle than 2", "setting": "[7]", "result": "> 10", "unit": "fold"}, {"measurement": "fold slower unit-time clearance (CL/F) in liver than 2", "setting": "[7]", "result": "> 30", "unit": "fold"}]}
